Bounds are passed on as bounds.

Chain of recombinant human Myt1 (Q99640 whole entry): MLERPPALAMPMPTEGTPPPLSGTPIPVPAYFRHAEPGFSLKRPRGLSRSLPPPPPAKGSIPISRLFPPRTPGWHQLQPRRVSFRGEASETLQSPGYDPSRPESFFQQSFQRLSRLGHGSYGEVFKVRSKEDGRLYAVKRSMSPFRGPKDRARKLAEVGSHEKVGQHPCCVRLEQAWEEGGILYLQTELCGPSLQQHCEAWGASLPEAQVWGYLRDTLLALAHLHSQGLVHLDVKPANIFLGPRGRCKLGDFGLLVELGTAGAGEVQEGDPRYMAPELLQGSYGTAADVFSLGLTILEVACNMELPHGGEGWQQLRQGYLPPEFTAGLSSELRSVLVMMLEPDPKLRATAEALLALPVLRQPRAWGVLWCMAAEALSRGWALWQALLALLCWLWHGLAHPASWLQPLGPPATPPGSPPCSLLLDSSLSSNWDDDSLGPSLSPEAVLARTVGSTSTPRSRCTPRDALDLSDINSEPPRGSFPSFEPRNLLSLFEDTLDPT

This assay has as its target recombinant human Myt1 (Homo sapiens (Human), UniProt Q99640). Briefly: Myt1 enzymatic assay (ADP-Glo kinase assay). The format is biochemical. Conditions: 18 nM enzyme, 10 uM ATP. Here is the method: Detection of Myt1 kinase activity utilized a recombinant human Myt1 kinase assay measuring the hydrolysis of ATP using a commercially available ADP-Glo Assay (ADP-Glo™ Kinase Assay from Promega, 10 000 assays, #V9102). […] After this, 5 μL of compounds (diluted in reaction buffer to 0.5% DMSO) was added to the microplate and the plate was spun briefly and incubated at 22° C. for 15 minutes. Ultra-Pure Adenosine Triphosphate (ATP) solution (ADP-Glo kit from Promega) was diluted in reaction buffer and 5 μL was added to the microplate, spun down briefly and incubated for 60 minutes at 30° C. […] After the 60-minute incubation, 15 µL of ADP-Glo reagent was added and the plate was spun briefly and sealed and incubated in the dark for 40 minutes at 22° C. […] Luminescence was read using the Envision (250 ms integration). The IC50 and the % max inhibition were calculated for each inhibitor compound tested.
Usually IC50 stands for the concentration that gives 50% inhibition. For the compound `Cc1ccc(O)c(C)c1-n1c(N)c(C(N)=O)c2cc(Br)c(C)nc21` [Compound 187], the IC50 is less than 10 nM.

In the case of `Cc1ccc(O)c(C)c1-n1cc(C(N)=O)c2cc(Cl)ccc21` [Compound 346, 5-chloro-1-(3-hydroxy-2,6-dimethylphenyl)-1H-indole-3-carboxamide], the IC50 came out at 234 nM.

Consider `Cc1ccc(O)c(C)c1-n1c(N)c(C(N)=O)c2nc(C(C)(C)F)cnc21` [Compound 178, 6-amino-2-(1-fluoro-1-methyl-ethyl)-5-(3-hydroxy-2,6-dimethyl-phenyl) pyrrolo[2,3-b]pyrazine-7-carboxamide], for which the IC50 was less than 10 nM. `Cc1ccc(O)c(C)c1-n1c(N)c(C(N)=O)c2nc(C3(C(F)(F)F)CC3)cnc21` [Compound 198, 6-amino-5-(3-hydroxy-2,6-dimethyl-phenyl)-2-[1-(trifluoromethyl)cyclopropyl]pyrrolo[2,3-b]pyrazine-7-carboxamide]: the 50% inhibitory concentration (IC50) is less than 10 nM. In the case of `CNC(=O)C1CCN(c2cnc3c(n2)c(C(N)=O)c(N)n3-c2c(C)ccc(O)c2C)CC1` [Compound 46, 6-amino-5-(3-hydroxy-2,6-dimethyl-phenyl)-2-[4-(methylcarbamoyl)-1-piperidyl]pyrrolo[2,3-b]pyrazine-7-carboxamide], the IC50 was less than 10 nM. The value for `NC(=O)c1c(N)n(-c2cccc3[nH]ncc23)c2nccnc12` [Compound 277, 6-amino-5-(1H-indazol-4-yl)pyrrolo[2,3-b]pyrazine-7-carboxamide] was 1380 nM; that for `CCN(CC)c1cnc2c(n1)c(C(N)=O)c(N)n2-c1c(C)ccc(O)c1C` [Compound 88] was less than 10 nM. As for `Cc1ccc2c(C(N)=O)c(N)n(-c3c(C)ccc(O)c3C)c2n1` [Compound 193], the IC50 was less than 10 nM. With `Cc1ccc(O)c(C)c1-n1c(N)c(C(N)=O)c2cccnc21` [Compound 328], the IC50 was less than 10 nM. Under `Cc1ccc(O)c(C)c1-n1c(N)c(C(N)=O)c2nc(-c3ccnnc3)cnc21` [Compound 250] stands less than 10 nM; under `Cc1ccc(O)c(C)c1-n1c(N)c(C(N)=O)c2nc(-c3cncs3)cnc21` [Compound 37], less than 10 nM; under `Cc1ccc(O)c(C)c1-n1c(N)c(C(N)=O)c2cc(I)cnc21` [Compound 319], less than 10 nM. With `Cc1ncc(O)cc1-n1c(N)c(C(N)=O)c2nc(C)c(C)nc21` [Compound 262], the IC50 came to 3230 nM. With `Cc1ccc(O)c(C)c1-n1c(N)c(C(N)=O)c2cc(C(C)C)cnc21` [Compound 138], the IC50 was less than 10 nM. Regarding `Cc1ccc(O)c(C)c1-n1c(N)c(C(N)=O)c2nc(-c3nc4ccccc4s3)cnc21` [Compound 248], the IC50 was less than 10 nM. Under `Cc1ccc(O)c(C)c1-n1c(N)c(C(N)=O)c2nc(-c3ccncn3)cnc21` [Compound 57] stands less than 10 nM; under `Cc1ccc(O)c(C)c1-n1cc(C(N)=O)c2cc(C3CC3)cnc21` [Compound 143], less than 10 nM; under `Cc1ccc(O)c(C)c1-n1c(N)c(C(N)=O)c2nc(-c3ccns3)cnc21` [Compound 41], less than 10 nM. The value for `Cc1ccc(O)c(C)c1-n1c(N)c(C(N)=O)c2nc(C3=CCCCC3)cnc21` [Compound 86] was less than 10 nM; that for `Cc1ccc(O)c(C)c1-n1c(N)c(C(N)=O)c2nc(N3CCCCC3)cnc21` [Compound 81] was less than 10 nM; that for `CCCCc1cnc2c(n1)c(C(N)=O)c(N)n2-c1cccc2[nH]ncc12` [Compound 331] was 1320 nM.

On to `Cc1ccc(O)c(C)c1-n1c(N)c(C(N)=O)c2nc(C(N)=O)cnc21` [Compound 220, 6-amino-5-(3-hydroxy-2,6-dimethyl-phenyl) pyrrolo[2,3-b]pyrazine-2,7-dicarboxamide], for which the IC50 is less than 10 nM. For `Cc1ccc(O)c(C)c1-n1c(N)c(C(N)=O)c2nc(C3=CCC(C(=O)N(C)C)CC3)cnc21` (stereo not drawn) [Compound 58], the IC50 was less than 10 nM. The value for `Cc1ccc(O)c(C)c1-n1c(N)c(C(N)=O)c2cc(N3CCCC3=O)cnc21` [Compound 298] was less than 10 nM; that for `Cc1nc2c(C(N)=O)c(N)n(-c3c(Cl)ccc(O)c3C)c2nc1C` [Compound 168] was less than 10 nM. The value for `C=C(C)c1cnc2c(n1)c(C(N)=O)c(N)n2-c1c(C)ccc(O)c1C` [Compound 202] was less than 10 nM; that for `Cc1ccc(O)c(C)c1-n1c(N)c(C(N)=O)c2nc(-c3cnccn3)cnc21` [Compound 38] was less than 10 nM.

Take `Cc1ccc(O)c(Cl)c1-n1c(N)c(C(N)=O)c2nc(C3CC3)cnc21` [Compound 104]: the IC50 is less than 10 nM.

Regarding `Cc1ccc(O)c(C)c1-n1c(N)c(C(N)=O)c2cc(C#N)cnc21` [Compound 312], the IC50 is less than 10 nM. Under `Cc1ccc(-c2cnc3c(n2)c(C(N)=O)c(N)n3-c2c(C)ccc(O)c2C)nc1` [Compound 61] stands less than 10 nM; under `Cc1cc2c(C(N)=O)c(N)c(-c3c(C)ccc(O)c3C)n2cc1C` [Compound 336, 2-amino-3-(3-hydroxy-2,6-dimethylphenyl)-6,7-dimethylindolizine-1-carboxamide], 38 nM. Take `Cc1ccc(O)c(C)c1-n1c(N)c(C(N)=O)c2nc(C3CCC3)cnc21` [Compound 173, 6-amino-2-cyclobutyl-5-(3-hydroxy-2,6-dimethyl-phenyl) pyrrolo[2,3-b]pyrazine-7-carboxamide]: the half-inhibitory concentration (IC50) is less than 10 nM. Take `Cc1ccc(O)c(Br)c1-n1c(N)c(C(N)=O)c2cc(Cl)cnc21` [Compound 289]: the IC50 was less than 10 nM. With `C=Cc1cnc2c(n1)c(C(N)=O)c(N)n2-c1c(C)ccc(O)c1C` [Compound 259], the half-maximal inhibitory concentration (IC50) was less than 10 nM. Under `Cc1ccc(O)c(C)c1-n1c(N)c(C(N)=O)c2nc(-c3nccs3)c(C)nc21` [Compound 31, 6-amino-5-(3-hydroxy-2,6-dimethyl-phenyl)-3-methyl-2-thiazol-2-yl-pyrrolo[2,3-b]pyrazine-7-carboxamide] stands less than 10 nM. On to `Cc1ccc(O)c(C)c1-n1c(N)c(C(N)=O)c2cc(C3=CCOCC3)cnc21` [Compound 304], for which the IC50 is less than 10 nM. Turning to `Cc1ccc(O)c(C)c1-n1c(N)c(C(N)=O)c2nc(-c3ccc(F)cn3)cnc21` [Compound 64], the IC50 was less than 10 nM. The value for `NC(=O)c1c(N)n(-c2cccc3[nH]ncc23)c2ncc(Cl)cc12` [Compound 334, 2-amino-5-chloro-1-(1H-indazol-4-yl)pyrrolo[2,3-b]pyridine-3-carboxamide] was 50 nM; that for `Cc1ccc(O)c(Cl)c1-n1c(N)c(C(N)=O)c2cc(Cl)cnc21` [Compound 327] was less than 10 nM. Turning to `Cc1ccc(O)c(C)c1-n1c(N)c(C(N)=O)c2cc(-c3nccs3)cnc21` [Compound 308], the IC50 is less than 10 nM. Under `Cc1ccc(O)c(C)c1-n1c(N)c(C(N)=O)c2nc(N3CCCC3)cnc21` [Compound 85] stands less than 10 nM; under `Cc1ccc(O)c(C)c1-n1c(N)c(C(N)=O)c2cc(-c3ccccn3)cnc21` [Compound 295], less than 10 nM; under `Cc1c(O)ccc(Cl)c1-n1c(N)c(C(N)=O)c2nc(-c3nccs3)cnc21` [Compound 42], less than 10 nM. As to `Cc1ccc(O)c(C)c1-n1c(N)c(C(N)=O)c2cc(S(=O)(=O)C3CC3)cnc21` [Compound 311], the half-inhibitory concentration (IC50) is less than 10 nM. In the case of `Cc1ccc(O)c(C)c1-n1c(N)c(C(N)=O)c2cc(C(C)(C)O)cnc21` [Compound 131], the IC50 is less than 10 nM. Take `Cc1ccc(O)c(C)c1-n1c(N)c(C(N)=O)c2nc(N3CC4CCC(C3)O4)cnc21` [Compound 92]: the IC50 was less than 10 nM.

Consider `Cc1ccc(O)c(C)c1-n1c(N)c(C(N)=O)c2nc(-c3ccccn3)cnc21` [Compound 34], for which the IC50 was less than 10 nM.

As for `Cc1cc2c(-c3c(C)ccc(O)c3C)c(N)c(C(N)=O)n2cc1C` [Compound 338, 2-amino-1-(3-hydroxy-2,6-dimethylphenyl)-6,7-dimethylindolizine-3-carboxamide], the half-inhibitory concentration (IC50) was found to be 108 nM. Take `NC(=O)c1c(N)n(-c2cccc3[nH]ncc23)c2ncc(C3CC3)nc12` [Compound 330, 6-amino-2-cyclopropyl-5-(1H-indazol-4-yl)pyrrolo[2,3-b]pyrazine-7-carboxamide]: the IC50 was 106 nM. Under `Cc1ccc(O)c(C)c1-n1c(N)c(C(N)=O)c2nc(C3CC3)c(C)nc21` [Compound 100] stands less than 10 nM. The value for `Cc1ccc(O)c(C)c1-n1c(N)c(C(N)=O)c2nc(-c3c[nH]cn3)cnc21` [Compound 65] was less than 10 nM. Turning to `Cc1ccc2[nH]ncc2c1-n1c(N)c(C(N)=O)c2nccnc21` [Compound 329], the IC50 stood at 1320 nM. The value for `NC(=O)c1c(N)n(-c2cccc3[nH]ncc23)c2ncc(-c3ncc(F)cc3F)nc12` [Compound 333, 6-amino-2-(3,5-difluoro-2-pyridyl)-5-(1H-indazol-4-yl)pyrrolo[2,3-b]pyrazine-7-carboxamide] was 52 nM; that for `Cc1ccc(O)c(C)c1-n1c(N)c(C(N)=O)c2nc(-c3nc(C)c(C)s3)cnc21` [Compound 32] was less than 10 nM; that for `Cc1ccc(O)c(C)c1-n1c(N)c(C(N)=O)c2ncc(C#CCC3CCOCC3)nc21` [Compound 222] was less than 10 nM.

For the compound `Cc1ccc(O)c(C)c1-n1c(N)c(C(N)=O)c2ncc(C#CC3(O)CCOCC3)nc21` [Compound 231], the IC50 is less than 10 nM. As to `Cc1ccc(O)c(C)c1-n1c(N)c(C(N)=O)c2ncc(C#CC3(O)CCC(F)(F)CC3)nc21` [Compound 242, 6-amino-3-[2-(4,4-difluoro-1-hydroxy-cyclohexyl)ethynyl]-5-(3-hydroxy-2,6-dimethyl-phenyl) pyrrolo[2,3-b]pyrazine-7-carboxamide], the IC50 is less than 10 nM.
